The nature of data set [1]: Toxicity study (MTD) in normal mice. Format: in vivo, C3H female normal mice. To be noted: single i.p. injection, mice checked daily for 40 days (MTD40). On the procedure:
In the toxicity studies, 2 C3H female normal mice were dosed with compounds N1-4 (N1, N2, N3, and N4) at low and moderate doses of 40 and 100 mg/kg. Since no severe and irreversible toxicity occurred at these doses, a new pair of animals was initiated at 120 mg/kg which was 1.2 times higher than 100 mg/kg. Sequential dosages (ie. 2 mice for each drug dose) were increased by a factor of 1.2-1.5 until irreversible toxicity was observed (animal became emaciated; animal underwent rapid weight loss (cachexia) (20%) within several (2-4) days)(euthanasia was required) occurred. Then another pair of animals was initiated at the highest nontoxic dosage, and successive dosages were increased by a factor of 1.15. […] Six mice were dosed at each dosage. If no irreversible toxicity occurred at the lower dosage and at least one with irreversible toxicity at the higher dose, then the lower dose was considered to be the MTD. HCL salts of N1-4 were formulated in a solution of ethanol:Cremophor EL:0.2M NaAc:saline (5:5:10:80) with a final pH of 5.0-5.5. N1-4 bases were formulated in a solution of ethanol: Cremophor EL:saline (5:5:90). All compounds were administered to C3H female normal mice by a single i.p. injection at a volume of 0.5 ml/20 g mouse. Drug toxicity was evaluated on mice checked daily for 40 days. The toxicity parameters reported were the MTD40. […] At the end of experiment, all mice were euthanized.

Data set [2] concerns HCT116 human colon cancer xenograft. Kind of data set: Subcutaneous HCT116 human colon cancer xenograft model. Format: in vivo, Mus Musculus (BALB/c nude). On the procedure: Each mouse was inoculated subcutaneously with 5×10^6 HCT116 tumor cells in 0.1 ml PBS for tumor development. Treatments were started when the tumor volume reached 100 mm^3. […] Body weight and tumor volume were measured twice a week.
(Xenograft models place foreign cells or tissue in a host animal.)

The test system of data set [3] is VM46 Human Colon Cancer Cells Overexpressing Multi-drug Resistant Gene 1. Put plainly: Colony formation assay, VM46. Format: cell-based. The conditions noted are these: 50% inhibition of colony formation; 72 hours with drug; colonies counted after 14 days. The method, then: (§1) Cancer cells were plated in 60 mm Petri dishes containing 2.7 ml of medium (modified McCoy's 5a medium containing 10% fetal bovine serum and 100 units/ml penicillin and 100 ug/ml streptomycin). The cells were incubated in a CO2 incubator at 37 degree C. for 5 hours for attachment to the bottom of Petri dishes. Drugs were made up fresh in medium at ten times the final concentration, and then 0.3 ml of this stock solution was added to the 2.7 ml of medium in the dish. The cells were then incubated with drugs for 72 hours at 37 degree C. At the end of incubation the drug-containing media were decanted, the dishes were rinsed with 4 ml of Hank's Balance Salt Solution (HBSS), 5 ml of fresh medium was added, and the dishes were returned to the incubator for colony formation. The cell colonies were counted using colony counter after incubation for 7 days (HCT116 cell line), 14 days (VM46 cell line) and 15 days (H23 cell line). Cell survival (%) was calculated from 3 repeated dishes for each drug concentration and the mean values of IC50 (the drug concentration producing 50% inhibition of colony formation) were determined for each tested compound.

Data set [4] deals with H23 Human Non-small Cell Lung Cancer Cells. Put plainly: Colony formation assay, H23. The class given is cell-based. The conditions noted are these: 50% inhibition of colony formation; 72 hours with drug; colonies counted after 15 days. On the procedure:
as §1

The subject of data set [5] is HCT116 Human Colon Cancer Cells. Put plainly: Colony formation assay, HCT116. Format: cell-based. The conditions noted are these: 50% inhibition of colony formation; 72 hours with drug; colonies counted after 7 days. The method, then: as §1
Data set [6] is described as follows: Toxicity studies (MTD) in Cynomolgus monkeys. The class given is in vivo.
Data set [7] has as its system COLO205 human colon cancer xenograft. Kind of data set: Subcutaneous COLO205 human colon cancer xenograft model. Format: in vivo, Mus Musculus (BALB/c nude). The conditions noted are these: 125 mg/kg i.p. q3d×3, day 29. The method, then: Each mouse was inoculated subcutaneously with 5×10^6 COLO205 tumor cells in 0.1 ml PBS for tumor development. Treatments were started when the tumor volume reached 120 mm^3. […] Body weight and tumor volume were measured twice a week.

In data set [8] the test system is K562 human chronic myeloid leukemia xenograft. Put plainly: Subcutaneous K562 human chronic myeloid leukemia xenograft model. To be noted: 300 mg/kg ip Days 8, 11, 14.
A short description of the next data set: Rat MTD study. The class given is in vivo, Sprague-Dawley rats. The method, then: In the rat MTD study, Sprague-Dawley rats were dosed with 801 HCl at a concentration of 6 mg/ml via intravenous infusion or slow intravenous injection. The MTD of 801 in normal rats was 120 mg/kg/day. In the 7-day repeating dose study, the rats were administered with […] via BID slow IV injection for 7 days.

Structures are written as SMILES.

On to `CCC1(OC(=O)COc2ccc(C(=O)OC3c4cc5c(cc4C(c4cc(OC)c(OC)c(OC)c4)C4C(=O)OCC34)OCO5)cc2)C(=O)OCc2c1cc1n(c2=O)Cc2cc3c(CN(C)C)c(O)ccc3nc2-1.Cl` (stereo not drawn) [N1 HCL Salt], for which the “MTD Values” in data set [1] was 120 mg/kg.
`CCc1c2c(nc3ccc(OC(=O)N4CCC(N5CCCCC5)CC4)cc13)-c1cc3c(c(=O)n1C2)COC(=O)[C@]3(O)CC` [Irinotecan, reference compound]: the body weight loss in [2] (during the treatment period, doses of the study groups) is given as 8%.
On to `CCc1c2c(nc3ccc(O)c(CN(C)C)c13)-c1cc3c(c(=O)n1C2)COC(=O)C3(CC)OC(=O)COc1ccc(C(=O)OC2c3cc4c(cc3C(c3cc(OC)c(OC)c(OC)c3)C3C(=O)OCC23)OCO4)cc1` (stereo not drawn) [Compound N4], for which the IC50 in [3] was found to be 5 nM; in [4] it was 12.9 nM; in data set [5] it was 6.6 nM. The “MTD Values” in data set [1] came out at 250 mg/kg.
On to `CC[C@@]1(OC(=O)COc2ccc(C(=O)O[C@H]3c4cc5c(cc4[C@@H](c4cc(OC)c(OC)c(OC)c4)[C@H]4C(=O)OC[C@@H]43)OCO5)cc2)C(=O)OCc2c1cc1n(c2=O)Cc2cc3cc(OC(=O)N4CCC(N5CCCCC5)CC4)ccc3nc2-1.Cl` [Compound 801-HCl], for which the “MTD for repeating dosing” value in data set [6] (5-day repeat dose, intravenous infusion) came to 30 mg/kg/day. In addition, the MTD in data set [6] (intravenous infusion twice daily with a 5-hour interval) is 60 mg/kg/day; in “Rat MTD study” (6 mg/ml via intravenous infusion or slow intravenous injection, normal rats), 120 mg/kg/day. Moreover, the TGI is recorded as 93% in data set [2] (125 mg/kg i.p. q3d×3, day 29) and 70% in data set [7]. The “TGI (Day 25)” value in [8] amounted to 98%. Moreover, the “Mean Tumor Volume” value worked out at 159 ± 6 mm^3 in data set [8] (Day 8 after tumor inoculation); 221 ± 27 mm^3 in data set [8] (Day 11); 164 ± 6 mm^3 in data set [8] (Day 14); 47 ± 7 mm^3 in data set [8] (Day 18); 39 ± 6 mm^3 in data set [8] (Day 21); 74 ± 12 mm^3 in data set [8] (Day 25). Also, the “Mean Tumor Volume” value amounted to 74 ± 2 mm^3 in data set [8] (Day 25, listed as 801-HCI) and 95 ± 19 mm^3 in data set [8] (Day 28). The “CR ratio (ratio of complete regression)” value in data set [8] (complete remission by Day 21) is 3/8. Further, the “maximum BW loss” value in data set [8] (next day after the 2nd dosing) turned out to be 7.7%. For the same compound, the “MTD Values” in [1] was 300 mg/kg.
For `CCc1c2c(nc3ccc(O)c(CN(C)C)c13)-c1cc3c(c(=O)n1C2)COC(=O)C3(CC)OC(=O)COc1ccc(C(=O)OC2c3cc4c(cc3C(c3cc(OC)c(OC)c(OC)c3)C3C(=O)OCC23)OCO4)cc1.Cl` (stereo not drawn) [N4 HCL Salt], the “MTD Values” in data set [1] is listed as 180 mg/kg.
For `CC[C@@]1(OC(=O)COc2ccc(C(=O)O[C@H]3c4cc5c(cc4[C@@H](c4cc(OC)c(OC)c(OC)c4)[C@H]4C(=O)OC[C@@H]43)OCO5)cc2)C(=O)OCc2c1cc1n(c2=O)Cc2cc3cc(OC(=O)N4CCC(N5CCCCC5)CC4)ccc3nc2-1` [N2 (801)], the IC50 in data set [3] was about 520 nM; in [4], 462 nM; in data set [5], over 500 nM. Also, the “MTD for repeating dosing” value in “Rat MTD study” (7-day repeating dose, BID slow IV injection) was determined as 60 mg/kg/day. Besides, the “MTD Values” in [1] is given as 300 mg/kg.
On to `CCc1c2c(nc3ccc(OC(=O)N4CCC(N5CCCCC5)CC4)cc13)-c1cc3c(c(=O)n1C2)COC(=O)C3(CC)OC(=O)COc1ccc(C(=O)OC2c3cc4c(cc3C(c3cc(OC)c(OC)c(OC)c3)C3C(=O)OCC23)OCO4)cc1.Cl` (stereo not drawn) [N3 HCL Salt], for which the “MTD Values” in [1] worked out at 144 mg/kg.

What is called IC50 is the point on the concentration scale where inhibition reaches its midpoint. A low value points to inhibition by little substance. As a reminder, the TGI is how far tumour growth fell short of that in controls. Read a low TGI as a weaker effect on the tumour.

The values above are taken from US11186594B2, “Podophyllotoxin derivatives and their use” (California Pacific Medical Center, priority 2015, dated 2021).
